Data published in patent US5741671A, “Isolation cloning and expression of transmembrane water channel aquaporin 1(AQP1)” (The Johns Hopkins University, priority 1995, dated 1998).
Entries after “also recorded” stand apart in the source; their conditions may differ.

Experiments:
[1] = molecular target: T1, AQP1 (Homo sapiens, UniProt P29972); assay: Stopped-flow osmotic water permeability of AQP1 proteoliposomes; assay type: biochemical
T1 construct: Human erythrocytes were obtained from blood-bank units stored up to 5 weeks; from tissue; host or cells: human erythrocytes (blood-bank units; small-scale preparations from freshly drawn whole blood)
T1 sequence (P29972 2-269 limits assumed): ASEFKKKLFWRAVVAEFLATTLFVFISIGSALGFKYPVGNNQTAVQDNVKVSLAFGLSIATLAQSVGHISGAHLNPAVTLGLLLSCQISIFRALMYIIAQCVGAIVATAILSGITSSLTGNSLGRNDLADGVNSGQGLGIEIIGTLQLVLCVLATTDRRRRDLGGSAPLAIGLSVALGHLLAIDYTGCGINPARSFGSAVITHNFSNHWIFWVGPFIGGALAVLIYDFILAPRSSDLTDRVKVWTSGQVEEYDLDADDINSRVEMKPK
Text: Preparation AQP1-containing proteoliposomes. Crude Escherichia coli lipid was obtained from Avanti Polar Lipids, Inc., and neutral lipid was removed by acetone/ether wash (Ambudkar & Maloney, 1986, Methods. Enzymol. 125:558-563). The purified E. coli bulk phospholipid is composed of phosphalidylethanolamine (70%), phosphatidylglycerol (15%), and cardiolipin (15%) (Chen & Wilson, […], Proc. Natl. Acad. Sci. USA 83:2652-2656). E. coli bulk phospholipid was employed since it has previously been used for functional reconstitution of several transport proteins including the glucose transporter of RBCs (Maloney & Ambudkar, 1989, Arch. Biochem. Biophys. 269:1-10; Chen et al., 1986, Proc. Natl. Acad. Sci. USA 83:2652-2656).
Highly purified AQP1 protein was incorporated into proteoliposomes by detergent dilution; control liposomes were formed in an identical manner without AQP1 protein.
Purified AQP1 was stored overnight at 0° C. or frozen for several days at -80° C. prior to reconstitution. Reconstitution into proteoliposomes was carried out in a final volume of 1 ml containing 60-90 μg of purified AQP1 protein in chromatography buffer, 9 mg of bath-sonicated E. coli phospholipid, 1.25% (w/v) octyl glucoside, and 50 mM Tris-HCl (pH 7.5). The mixture was briefly blended on a vortex mixer and incubated for 20 minutes on ice. Proteoliposomes (or liposomes prepared without protein) were formed at room temperature by rapidly injecting the mixture into 25 ml of buffer A [50 mM MOPS, pH 7.5, 150 mM N-methyl-D-glucamine (NMDG) chloride also containing 10-15 mM carboxyfluorescein, 1 mM dithiothreitol, and 0.5 mM PMSF]. For the measurement of proton permeability, proteoliposomes and liposomes were loaded with buffer B (5 mM MOPS, pH 7.5, 150 mM KCl, 0.5 mM carboxyfluorescein, 1 mM dithiothreitol, and 0.5 mM PMSF). The suspension was incubated for 20 minutes at room temperature. Proteoliposomes or liposomes were collected by centrifugation for 1 hour at 123000×g in a Beckman Type 42.1 rotor at 4° C. The pellet was resuspended in 8 ml of buffer A or B and then centrifuged for 1 hour at 152000×g in a Beckman Type 50 Ti rotor. Proteoliposomes or liposomes were resuspended in 300 μl of buffer A or B and stored at 4° C. for 16-24 hours. Typically 50% (54±6%, n=5) of the AQP1 protein and 70% of the phospholipid were recovered in proteoliposomes. The lipid to protein ratio was in the range of 120:1 to 219:1. […] Protein and phospholipid were measured as described by Ambudkar & Maloney (J. Biol. Chem., 1986, 261:10079-10086).
Permeability measurements. Membrane permeability measurements (Pf) were measured by exposing AQP1 proteoliposomes or control liposomes to an osmotic gradient by rapid mixing with an equal volume of another solution containing buffer A plus sufficient sucrose to increase osmolality in the mixed solutions to a value 120% of that in the original solution. This was performed with a stopped-flow fluorometer (SF.17MV, Applied Photophysics, Leatherhead, U.K.) with a measured dead time of 0.7 ms. […] Extravesicular carboxyfluorescein fluorescence was completely quenched using anti-fluorescein antibody (Harris et al., 1990, Am. J. Physiol. 259:F366-F371). Within the range of osmolalities used in these experiments, the vesicles acted as perfect osmometers, and relative volume (absolute volume divided by initial volume) was linearly related to relative fluorescence (absolute fluorescence divided by initial fluorescence). […]

[2] = molecular target: T2, AQP5 (Rattus norvegicus, UniProt P47864); assay: Xenopus oocyte swelling assay, AQP5 (salivary) cRNA-injected oocytes (Example 11); assay type: cell-based
T2 construct: the entire open reading frame of the salivary cDNA; expressed in transfected cells; host or cells: Xenopus oocytes injected with cRNA from expression construct pXβG
Description: Functional Expression in Oocytes-A 1-kb BamHI fragment containing the 5'untranslated sequence and the entire open reading frame of the salivary cDNA was blunt-end-ligated into the BglII site of the Xenopus expression construct pXβG, which contains the HindIII-Pst insert of pSP64T in pBS II KS (Preston et al., 1992, Science, 256:385-387). Capped cRNA was synthesized in vitro after digestion with Xbal (Preston et al., 1993). Defolliculated stage V-VI Xenopus oocytes were injected with 50 nl of water or up to 5 ng of sample cRNAs and incubated for 3 days at 18° C. in 200 mosM modified Barth's buffer. The oocytes were transferred to 70 mosM modified Barth's buffer at 21° C.; oocyte swelling was monitored by videomicroscopy, and the coefficient of osmotic water permeability (Pf) was determined (Preston et al., 1992, 1993). Uptake of [^14 C]urea or [^14 C]glycerol was measured by incubating oocytes in 200 mosM Barth's buffer for 10-20 min at 21° C. followed by washing and SDS solubilization. No increase in ion conductance was found when control oocytes were compared to RNA-injected oocytes by two electrode voltage clamps (Preston et al., 1992). […]

T2 sequence (P47864 whole entry): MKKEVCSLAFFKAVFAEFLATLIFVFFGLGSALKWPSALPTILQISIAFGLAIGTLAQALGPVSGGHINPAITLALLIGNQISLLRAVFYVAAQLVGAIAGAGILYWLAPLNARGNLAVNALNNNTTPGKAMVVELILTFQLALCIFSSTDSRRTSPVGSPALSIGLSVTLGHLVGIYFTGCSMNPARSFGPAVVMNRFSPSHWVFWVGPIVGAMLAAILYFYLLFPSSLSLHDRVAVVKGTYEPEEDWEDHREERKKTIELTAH

**Q.** How did the “Pf after mercurial treatment” value ([1]; CHIP28 proteoliposomes, 1 mM HgCl2, 3 minutes at 37° C.) turn out when `[Cl][Hg][Cl]` [HgCl2] was run?
**A.** 0.007±0.003 cm/s

**Q.** And the “time to complete inhibition of Pf” value ([1]; CHIP28 proteoliposomes, 1 mM, 37° C.)?
**A.** ≤ 5 min

**Q.** What about the “inhibition of Pf of AQP5-expressing oocytes” value ([2]; 1 mM HgCl2, 5 min) of the same molecule?
**A.** comparable reduction; also recorded: reversibly inhibited

**Q.** What does the source list for `OCCS` [β-mercaptoethanol]?
**A.** reversal of inhibition by mercurial reagents ([1]; 5 mM β-mercaptoethanol after pCMBS or HgCl2): completely reversed; restoration of Pf of AQP5-expressing oocytes after HgCl2 ([2]; 5 mM β-mercaptoethanol 30 min after 1 mM HgCl2): restored
